Experimental data from patent publication US12661342B2, “Heteroaryl compounds and therapeutic uses thereof in conditions associated with the alteration of the activity of beta-glucocerebrosidase” (GT GAIN THERAPEUTICS SA, priority 2019, dated 2026).

target: T1, β-glucocerebrosidase (Homo sapiens, UniProt P04062, L483P); test: Enhancement of β-glucocerebrosidase activity measured in Gaucher disease fibroblasts (4-MU-β-D-glucopyranoside substrate, intact cells); format: cell-based; parameters: key: Increase in comparison with non-treated of >2.0 fold is shown as A; Increase in comparison with non-treated of >1.7-2.0 fold is shown as B; Increase in comparison with non-treated of 1.2-1.7 fold is shown as C; D means that no increase compared with non-treated cells was detected in this method; settings: GBA fibroblasts bearing L444P (GM08760A, homozygous p.L444P); compound at concentrations between 6 and 50 μM; 4 days incubation
T1 construct: host or cells: human Gaucher disease patient fibroblasts GM08760A
T1 sequence (P04062 40-536 L483P): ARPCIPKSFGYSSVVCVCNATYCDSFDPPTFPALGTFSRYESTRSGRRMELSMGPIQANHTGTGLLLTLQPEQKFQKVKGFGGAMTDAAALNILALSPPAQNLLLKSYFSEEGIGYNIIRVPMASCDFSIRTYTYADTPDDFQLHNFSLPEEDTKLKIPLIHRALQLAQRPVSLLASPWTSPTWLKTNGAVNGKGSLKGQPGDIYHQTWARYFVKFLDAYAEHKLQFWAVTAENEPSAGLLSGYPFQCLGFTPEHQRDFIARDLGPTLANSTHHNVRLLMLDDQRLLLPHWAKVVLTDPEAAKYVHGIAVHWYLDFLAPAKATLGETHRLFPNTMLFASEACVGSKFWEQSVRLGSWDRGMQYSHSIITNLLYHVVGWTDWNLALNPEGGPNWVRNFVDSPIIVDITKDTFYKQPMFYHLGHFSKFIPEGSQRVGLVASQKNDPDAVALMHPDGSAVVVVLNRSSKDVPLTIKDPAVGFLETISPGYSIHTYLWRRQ
Procedure, shortened: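 Patient fibroblasts homozygous for p.L444P (GM08760A), grown in DMEM/10% FBS and exposed to compound for 4 days. Intact cells then given 4-MU-β-D-glucopyranoside in 0.1 M acetate pH 4, 1 h, 37 °C; stopped at pH 10.7, 4-MU fluorescence ex 340/em 460. Value is fold increase over untreated cells; binned at 6–50 μM.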

| SMILES | Range: increase in enzyme activity in comparison with non-treated cells (Enzyme activity assay for compounds of Examples 33-141) |
| --- | --- |
| CN(C(=O)c1cc(N)cc(Nc2ccccc2F)n1)c1ccccc1 [Example 114, 4-Amino-6-((2-fluorophenyl)amino)-N-methyl-N-phenylpicolinamide] | D |
| CN(C(=O)c1cc(N)cc(Nc2cccc(F)c2)n1)c1ccccc1 [Example 115, 6-(3-Fluorophenylamino)-4-amino-N-methyl-N-phenylpyridine-2-carboxamide] | C (Increase in comparison with non-treated of 1.2-1.7 fold is shown as C) |
| Nc1cc(Nc2cccc(F)c2)nc(C(=O)N2Cc3ccccc3C2)c1 [Example 116, (6-(3-Fluorophenylamino)-4-aminopyridin-2-yl)(isoindolin-2-yl)methanone] | C (Increase in comparison with non-treated of 1.2-1.7 fold is shown as C) |
| Nc1cc(Nc2cccc3c2OCO3)cc(C(=O)NC2Cc3ccccc3C2)n1 [Example 123, 6-Amino-4-(benzo[d][1,3]dioxol-4-ylamino)-N-(2,3-dihydro-1H-inden-2-yl)picolinamide] | C (Increase in comparison with non-treated of 1.2-1.7 fold is shown as C) |
| Nc1cc(Nc2ccccc2O)nc(C(=O)N2CCN(c3ccccc3)CC2)n1 [Example 125, (4-Amino-6-((2-hydroxyphenyl)amino)pyrimidin-2-yl)(4-phenylpiperazin-1-yl)methanone] | C (Increase in comparison with non-treated of 1.2-1.7 fold is shown as C) |
| Nc1nc(Nc2ccccc2O)nc(C(=O)NC2CCc3ccccc3C2)n1 (centres unmarked) [Example 126, 4-Amino-6-((2-hydroxyphenyl)amino)-N-(1,2,3,4-tetrahydronaphthalen-2-yl)-1,3,5-triazine-2-carboxamide] | C (Increase in comparison with non-treated of 1.2-1.7 fold is shown as C) |
| Nc1cc(Nc2ccccc2O)cc(C(=O)NC2CCc3ccccc3C2)n1 (centres unmarked) [Example 127, 6-Amino-4-((2-hydroxyphenyl)amino)-N-(1,2,3,4-tetrahydronaphthalen-2-yl)picolinamide] | B (Increase in comparison with non-treated of >1.7-2.0 fold is shown as B) |
| CN(C(=O)c1cc(Nc2ccccc2O)cc(N)n1)c1ccccc1 [Example 128, 6-Amino-4-((2-hydroxyphenyl)amino)-N-methyl-N-phenylpicolinamide] | C (Increase in comparison with non-treated of 1.2-1.7 fold is shown as C) |
| Nc1cc(Nc2ccccc2O)nc(C(=O)NC2Cc3ccccc3C2)c1 [Example 129, 4-Amino-N-(2,3-dihydro-1H-inden-2-yl)-6-((2-hydroxyphenyl)amino)picolinamide] | C (Increase in comparison with non-treated of 1.2-1.7 fold is shown as C) |
| Nc1nc(Nc2ccccc2O)cc(C(=O)N2CCN(c3ccccc3)CC2)n1 [Example 130, (2-Amino-6-((2-hydroxyphenyl)amino)pyrimidin-4-yl)(4-phenylpiperazin-1-yl)methanone] | C (Increase in comparison with non-treated of 1.2-1.7 fold is shown as C) |
| CN(C(=O)c1cc(N)cc(Nc2ccccc2O)n1)C1Cc2ccccc2C1.Cl [Example 131, 4-Amino-N-(2,3-dihydro-1H-inden-2-yl)-6-((2-hydroxyphenyl)amino)-N-methyl-picolinamide hydrochloride] | C (Increase in comparison with non-treated of 1.2-1.7 fold is shown as C) |
| CN(C(=O)c1cc(N)cc(Nc2ccccc2F)n1)C1Cc2ccccc2C1.Cl [Example 132, 4-Amino-N-(2,3-dihydro-1H-inden-2-yl)-6-((2-fluorophenyl)amino)-N-methylpicolinamide hydrochloride] | C (Increase in comparison with non-treated of 1.2-1.7 fold is shown as C) |
| COc1ccccc1Nc1cc(N)cc(C(=O)NC2Cc3ccccc3C2)n1.Cl [Example 133, 4-amino-N-(2,3-dihydro-1H-inden-2-yl)-6-((2-methoxyphenyl)amino)picolinamide hydrochloride] | C (Increase in comparison with non-treated of 1.2-1.7 fold is shown as C) |
| Cl.Nc1cc(Nc2cccc(F)c2)nc(C(=O)Nc2ccccc2)c1 [Example 134, 4-Amino-6-((3-fluorophenyl)amino)-N-phenylpicolinamide hydrochloride] | A (Increase in comparison with non-treated of >2.0 fold is shown as A) |
| COc1cccc(Nc2cc(N)cc(C(=O)Nc3ccccc3)n2)c1.Cl [Example 135, 4-Amino-6-((3-methoxyphenyl)amino)-N-phenylpicolinamide hydrochloride] | A (Increase in comparison with non-treated of >2.0 fold is shown as A) |
| Cc1cccc(NC(=O)c2cc(N)cc(Nc3cccc(F)c3)n2)c1.Cl [Example 136, 4-Amino-6-((3-fluorophenyl)amino)-N-(m-tolyl)picolinamide hydrochloride] | A (Increase in comparison with non-treated of >2.0 fold is shown as A) |
| Cl.Nc1cc(Nc2cccc(F)c2)nc(C(=O)NC2Cc3ccccc3C2)c1 [Example 138, 4-Amino-N-(2,3-dihydro-1H-inden-2-yl)-6-((3-fluorophenyl)amino)picolinamide hydrochloride] | A (Increase in comparison with non-treated of >2.0 fold is shown as A) |
| Cl.Nc1cc(Nc2ccccc2F)nc(C(=O)NC2Cc3ccccc3C2)c1 [Example 139, 4-Amino-N-(2,3-dihydro-1H-inden-2-yl)-6-((2-fluorophenyl)amino)picolinamide hydrochloride] | C (Increase in comparison with non-treated of 1.2-1.7 fold is shown as C) |
| Cl.Nc1cc(Nc2cc(F)cc(F)c2)nc(C(=O)NC2Cc3ccccc3C2)c1 [Example 140, 4-Amino-6-((3,5-difluorophenyl)amino)-N-(2,3-dihydro-1H-inden-2-yl)picolinamide hydrochloride] | A (Increase in comparison with non-treated of >2.0 fold is shown as A) |
| COc1cccc(Nc2cc(N)nc(C(=O)NC3Cc4ccccc4C3)c2)c1.Cl [Example 141, 6-Amino-N-(2,3-dihydro-1H-inden-2-yl)-4-((3-methoxyphenyl)amino)picolinamide hydrochloride] | C (Increase in comparison with non-treated of 1.2-1.7 fold is shown as C) |
